Measured values published in US12618062B2, “Display of molecules on silently genetically encoded nanoscale carriers for determining synergistic molecular interactions” (The Governors of the University of Alberta, priority 2017, dated 2026).

Molecular target: T1, Ulex Europaeus Agglutinin (UEA lectin) (Ulex europaeus, UniProt P22972)
T1 sequence (P22972 1-243): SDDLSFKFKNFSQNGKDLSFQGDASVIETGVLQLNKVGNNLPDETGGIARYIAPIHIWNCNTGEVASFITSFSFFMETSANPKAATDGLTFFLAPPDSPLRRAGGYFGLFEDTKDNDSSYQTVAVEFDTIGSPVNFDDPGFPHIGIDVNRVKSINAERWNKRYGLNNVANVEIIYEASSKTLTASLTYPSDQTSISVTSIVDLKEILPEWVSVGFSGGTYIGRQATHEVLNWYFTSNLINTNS
Test: Pull-down of liquid glycan array and deep sequencing
Type: binding
Conditions: array of 74 glycans; FIG. 6H
Text: The washing step was repeated three times.

Substance	Enrichment in pull down by plant lectin UGA
Fucα1-2Galb1-4[Fucα1-3]GlcNAcb-Phage [Te118]	enrichment not detected
GalNAcα1-3 [Fucα1-2]Galβ1-4G1cNAcβ-Phage [Te222]	enrichment not detected
